Assay results: patent EP4781993A1, “ANTIBACTERIAL COMPOSITION AND ANTIBACTERIAL DRUG” (Shenzhen China Resources Gosun Pharmaceuticals Co., Ltd., priority 2023, dated 2025)
Where two headings read alike, the source gives them in different places.

Columns and labels:
[1] = tested on: KPC-2 producing Klebsiella pneumoniae; experiment: Broth-microdilution MIC (CLSI M07-A11) against clinical isolates; format: cell-based; parameters: Drug concentration: unit: mg/L; details: for Drug concentration: unit not given in Table 3
Excerpt: (§1) As recommended by CLSI (Clinical and Laboratory Standards Institute) M07-A11 (2018 edition), the Broth-microdilution method is adopted to determine the minimum inhibitory concentration (MIC) of ceftobiprole and zidebactam against clinical isolates. It should be noted that, in the present disclosure, MIC50 refers to the minimum drug concentration that inhibits the growth of 50% of the tested bacteria, and MIC90 refers to the minimum drug concentration that inhibits the growth of 90% of the tested bacteria.
(§2) Antibacterial drug: ceftobiprole, manufacturer: Shenyang Sanjiu Pharmaceutical, content: 92.1%, batch number: YF/BALP141/000. Zidebactam, manufacturer: Target M01 company, batch number: 149661. Zidebactam, as described above, the English name is Zidebactam, and the chemical name is: (2S,5R)-7-oxo-2-(2-((R)-piperidine-3-carbonyl)hydrazine-1-carbonyl)-1,6-diazabicyclo[3.2.1]octan-6-yl hydrogen sulfate.
(§3) Tested strains: a total of 24 genotypic strains producing KPC or OXA β-lactamase. Specifically, the tested strains include 24 strains of Klebsiella pneumoniae, including 12 KPC-2 producing strains and 12 OXA-232 producing strains.
(§4) Quality control strains: Escherichia coli ATCC 25922, (KPC-2 producing) Klebsiella pneumoniae ATCC BAA-1705, and (NDM-1 producing) Klebsiella pneumoniae ATCC BAA-2146.
(§5) Medium: cation-adjusted Mueller-Hinton broth (CAMHB), a product of BBL Company, USA.
(§6) Inoculum size: Pure isolated colonies were adjusted with normal saline to 0.5 McFarland turbidity. After appropriate dilution, the suspension was added to the wells of a 96-well U-bottom microplate (containing 50 µL antibacterial drug solution). The inoculum size was 5 × 10^5 CFU/mL.
(§7) Culture conditions: air environment, 35°C ± 2°C, 16 to 20 hours.
(§8) Preparation of Antibacterial Drug Solution : Ceftobiprole and zidebactam were taken separately, dissolution and dilution were performed according to the antibacterial drug reference to the CLSI standards and the drug package insert, A1 to A6, a total of 6 groups of antibacterial drug solutions, were prepared, among which, group A1 was the control group containing solely the single agent ceftobiprole, and group A2 was the control group containing solely the single agent zidebactam. Different antibacterial drug solutions with ceftobiprole concentrations ranging from 128 mg/L to 0.06 mg/L were respectively included in groups A1 and A3 to A6, and different antibacterial drug solutions with zidebactam concentrations ranging from 128 mg/L to 0.06 mg/L were included in group A2. The specific concentrations within the range of 128 mg/L to 0.06 mg/L in groups A1 to A6 were respectively 128 mg/L, 64 mg/L, 32 mg/L, 16 mg/L, 8 mg/L, 4 mg/L, 2 mg/L, 1 mg/L, 0.5 mg/L, 0.25 mg/L, 0.125 mg/L, or 0.06 mg/L, respectively. Table 1. Concentrations of ceftobiprole/zidebactam contained in the antibacterial drug solutions of groups A1 to A6
(§9) Experimental results: Currently, there are no established CLSI or EUCAST breakpoints for ceftobiprole/β-lactamase inhibitor. Therefore, the antibacterial activity of ceftobiprole/β-lactamase inhibitor is evaluated in accordance with the standards for ceftobiprole. WHONET 5.6 software is used to perform statistical analysis on the results of antibacterial susceptibility test. The fractional inhibitory concentration index (FIC) for the combination of ceftobiprole and zidebactam is calculated according to Equation (1). FIC index = (MIC of drug A in combination)/(MIC of drug A alone) + (MIC of drug B in combination)/(MIC of drug B alone) [formula]
(§10) In Equation (1), drug A is ceftobiprole, and drug B is zidebactam. […] Table 2. In vitro antibacterial activity of ceftobiprole/zidebactam against the tested bacteria in Example 1 […]

[2] = tested on: OXA-232 producing Klebsiella pneumoniae; experiment: as above; format: cell-based; parameters: Drug concentration: unit: mg/L; details: for Drug concentration: unit not given in Table 3
Excerpt: as §1, §2, §3, §4, §5, §6, §7, §8, §9, §10

[3] = 12 strains, MIC = ceftobiprole concentration (groups A2, B2, C2, D2, E2: inhibitor alone)
[4] = 12 strains, MIC = ceftobiprole concentration (groups A2, B2, C2, D2, E2: inhibitor alone), listed as Group Al
[5] = Klebsiella pneumoniae, 12 strains, MIC = ceftobiprole concentration (groups A2, B2, C2, D2, E2: inhibitor alone)

MIC range [1, 3]: >128 µg/mL
MIC50 [1, 4]: >128 µg/mL
MIC90 [1, 4]: >128 µg/mL
MIC50 ([1]; Klebsiella pneumoniae, 12 strains, MIC = ceftobiprole concentration (groups A2, B2, C2, D2, E2: inhibitor alone), read-out: MIC50): ≥ 128 µg/mL
MIC90 ([1]; Klebsiella pneumoniae, 12 strains, MIC = ceftobiprole concentration (groups A2, B2, C2, D2, E2: inhibitor alone), read-out: MIC90): ≥ 128 µg/mL
MIC range [2, 3]: >128 µg/mL
MIC50 [2, 5]: ≥ 128 µg/mL
MIC90 [2, 5]: ≥ 128 µg/mL
Structure (SMILES): Nc1nc(/C(=N/O)C(=O)N[C@@H]2C(=O)N3C(C(=O)O)=C(/C=C4\CCN([C@@H]5CCNC5)C4=O)CS[C@H]23)ns1 [Group A1, (6R,7R)-7-((Z)-2-(5-amino-1,2,4-thiadiazol-3-yl)-2-(hydroxyimino)acetamido)-8-oxo-3-((E)-((R)-2-oxo-[1,3'-bipyrrolidin]-3-ylidene)methyl)-5-thia-1-azabicyclo[4.2.0]oct-2-ene-2-carboxylic acid]
Cumulative inhibition rate (%) ([1]; MIC >128 mg/L): 100%
Cumulative number of strains ([1]; MIC >128 mg/L): 12
Number of strains ([1]; MIC >128 mg/L): 12
Mode ([1]; mode of MIC, 12 strains): >128 mg/L
Drug concentration ([1]; strain 18-W09-043 (kpn, KPC-2)): >128
Drug concentration ([1]; strain 18-W09-045 (kpn, KPC-2)): >128
Drug concentration ([1]; strain 18-W09-046 (kpn, KPC-2)): >128
Drug concentration ([1]; strain 18-W09-047 (kpn, KPC-2)): >128
Drug concentration ([1]; strain 18-W09-049 (kpn, KPC-2)): >128
Drug concentration ([1]; strain 18-W09-050 (kpn, KPC-2)): >128
Drug concentration ([1]; strain 18-W09-051 (kpn, KPC-2)): >128
Drug concentration ([1]; strain 18-W13-043 (kpn, KPC-2)): >128
Drug concentration ([1]; strain 18-W13-044 (kpn, KPC-2)): >128
Drug concentration ([1]; strain 18-W13-045 (kpn, KPC-2)): >128
Drug concentration ([1]; strain 18-W13-046 (kpn, KPC-2)): >128
Drug concentration ([1]; strain 18-W13-047 (kpn, KPC-2)): >128
antibacterial activity ([1]; verdict in words): no antibacterial activity
Cumulative inhibition rate (%) ([2]; MIC >128 mg/L): 100%
Cumulative number of strains ([2]; MIC >128 mg/L): 12
Number of strains ([2]; MIC >128 mg/L): 12
Mode ([2]; mode of MIC, 12 strains): >128 mg/L
Drug concentration ([2]; strain 20-W4-001 (kpn, OXA-232)): >128
Drug concentration ([2]; strain 20-W4-002 (kpn, OXA-232)): >128
Drug concentration ([2]; strain 20-W4-003 (kpn, OXA-232)): >128
Drug concentration ([2]; strain 20-W4-004 (kpn, OXA-232)): >128
Drug concentration ([2]; strain 20-W4-005 (kpn, OXA-232)): >128
Drug concentration ([2]; strain 20-W4-007 (kpn, OXA-232)): >128
Drug concentration ([2]; strain 20-W4-008 (kpn, OXA-232)): >128
Drug concentration ([2]; strain 20-W4-009 (kpn, OXA-232)): >128
Drug concentration ([2]; strain 20-W4-010 (kpn, OXA-232)): >128
Drug concentration ([2]; strain 20-W4-011 (kpn, OXA-232)): >128
Drug concentration ([2]; strain 20-W4-012 (kpn, OXA-232)): >128
Drug concentration ([2]; strain 20-W4-013 (kpn, OXA-232)): >128
antibacterial activity ([2]; verdict in words): no antibacterial activity
